The values that follow come from patent publication US10526337B2, “Heteroaryl derivative or pharmaceutically acceptable salt thereof, preparation method therefor, and pharmaceutical composition for preventing or treating diseases associated with PI3 kinases, containing same as active ingredient” (KOREA RESEARCH INSTITUTE OF CHEMICAL TECHNOLOGY, priority 2015, dated 2020).

pIC50: −log10 of the molar value.

In one experiment the target is T1, PI3 Kinase (p120γ) (h) (Homo sapiens, UniProt P48736).
T1 construct: endogenous in cells; host or cells: RAW264.7
Briefly: Inhibition of phosphatidylinositol 3-kinase gamma (PI3K γ), pAkt Western blotting in C5a-stimulated RAW264.7 macrophages. It is filed as cell-based, mouse. The settings on record: ATP=10 uM, sample concentration=100 nM. Here is the method: (§1) The stimulated cells were transferred in a 1.5 mL tube, followed by centrifugation at 3000 rpm for 1 minute. 100 μL of RIPA buffer (radioimmunoprecipitation assay buffer, 50 mM Tris-HCl, 5 mM EDTA, 150 mM NaCl, 1% NP-40, 1 mM PMSF, pH 8.0; ELPIS, Korea) was added thereto, which was stored in a 4° C. refrigerator for 12 hours. Centrifugation was performed at 4° C. at 14,000 rpm for 20 minutes. The supernatant was transferred into a new 1.5 mL tube. Protein was quantified by BCA (bicinchoninic acid) method and samples were prepared. The composition of the sample was as follows: sample buffer (ELPIS, EBA-1052) 5×, protein 10 μg, and 1× sample buffer to make the total volume 20 μL. The sample was heated at 100° C. for 5 minutes. The evaporated water vapor was condensed in a refrigerator. The liquid stained on the wall was fallen down by centrifugation for a few seconds. The sample proceeded to 10% SDS (Sodium Dodecyl Sulfate) acrylamide gel for separation. The separated protein was transferred onto PVDF (poly-vinyl difluoride) membrane, followed by reaction with pAkt (phospho protein kinase B) antibody (Ser473 or Thr308; Cell signaling, 9271s or 13038s) for 12 hours at 4° C. The membrane was washed with TBST (Tris-Buffered Saline with Tween 20, 10 mM Tris-HCl, pH 7.5, 150 mM NaCl, 0.1% Tween-20) three times for 5 minutes each, to which the secondary antibody (rabbit antibody, Santacruz, sc-2004) was added, followed by reaction at room temperature for 2 hours. The membrane was washed with TBST three times for 10 minutes each, to which ECL (enhanced chemiluminescence, Thermo, NCI34095KR) was sprayed. Bands were investigated by using LAS-3000.
The inhibition of phosphatidylinositol 3 kinase gamma (PI3K γ) by those compounds prepared in Examples 1˜98 was investigated by the following experiment. The inhibition activity of each compound was measured in the following conditions: ATP=10 uM, and sample concentration=100 nM.
(§2) Macrophages (RAW264.7) cultured in DMEM (Dulbecco's Modified Eagle Medium, Hyclon, SH30243.01) supplemented with 10% fetal bovine serum (Hyclon, USA) were distributed in a 12-well plate at the density of 1,000,000 cells/well. The cells were stabilized in a 37° C. CO2 for 24 hours and then treated with each compound for 1 and half hours. The cells were treated with 10 ng/mL of C5a (complement component 5a, 10 μg/mL; R&D, 2150-C5) to increase the intracellular activity of PI3K gamma. 5 minutes later, the medium was discarded and the cells were washed with cold PBS (phosphate buffered saline, Gibco, 14190-250). PBS was then eliminated completely by using a pipette. Western blotting was performed according to the same manner as described in step 2 of Experimental Example 1 to evaluate the intracellular PI3K gamma activity.
A general note: Immunoblotting shows a protein as a band on a membrane.

Experiment [1] deals with T2, PI3 Kinase (p110δ/p85α) (h) (Homo sapiens, UniProt O00329).
T2 construct: endogenous in cells; host or cells: Raji
Briefly: Inhibition of phosphatidylinositol 3-kinase delta (PI3K δ), pAkt Western blotting in IgM-stimulated Raji cells. The class given is cell-based. The settings on record: ATP=10 uM, sample concentration=100 nM. Here is the method: as §1
The inhibition of phosphatidylinositol 3 kinase delta (PI3K δ) by those compounds prepared in Examples 1˜98 was investigated by the following experiment. The inhibition activity of each compound was measured in the following conditions: ATP=10 uM, and sample concentration=100 nM.
as §2, with “Raji cells” for “Macrophages (RAW264.7)”, “RPMI1640 (Hyclone, SH30027.02)” for “DMEM (Dulbecco's Modified Eagle Medium, Hyclon, SH30243.01)”, “0.25 μg/mL” for “10 ng/mL”, “IgM (immunoglobulin M, Southern Biotech, USA)” for “C5a (complement component 5a, 10 μg/mL; R&D, 2150-C5)”, “delta. 30” for “gamma. 5”, “delta” for “gamma”

T2 sequence (O00329 whole entry): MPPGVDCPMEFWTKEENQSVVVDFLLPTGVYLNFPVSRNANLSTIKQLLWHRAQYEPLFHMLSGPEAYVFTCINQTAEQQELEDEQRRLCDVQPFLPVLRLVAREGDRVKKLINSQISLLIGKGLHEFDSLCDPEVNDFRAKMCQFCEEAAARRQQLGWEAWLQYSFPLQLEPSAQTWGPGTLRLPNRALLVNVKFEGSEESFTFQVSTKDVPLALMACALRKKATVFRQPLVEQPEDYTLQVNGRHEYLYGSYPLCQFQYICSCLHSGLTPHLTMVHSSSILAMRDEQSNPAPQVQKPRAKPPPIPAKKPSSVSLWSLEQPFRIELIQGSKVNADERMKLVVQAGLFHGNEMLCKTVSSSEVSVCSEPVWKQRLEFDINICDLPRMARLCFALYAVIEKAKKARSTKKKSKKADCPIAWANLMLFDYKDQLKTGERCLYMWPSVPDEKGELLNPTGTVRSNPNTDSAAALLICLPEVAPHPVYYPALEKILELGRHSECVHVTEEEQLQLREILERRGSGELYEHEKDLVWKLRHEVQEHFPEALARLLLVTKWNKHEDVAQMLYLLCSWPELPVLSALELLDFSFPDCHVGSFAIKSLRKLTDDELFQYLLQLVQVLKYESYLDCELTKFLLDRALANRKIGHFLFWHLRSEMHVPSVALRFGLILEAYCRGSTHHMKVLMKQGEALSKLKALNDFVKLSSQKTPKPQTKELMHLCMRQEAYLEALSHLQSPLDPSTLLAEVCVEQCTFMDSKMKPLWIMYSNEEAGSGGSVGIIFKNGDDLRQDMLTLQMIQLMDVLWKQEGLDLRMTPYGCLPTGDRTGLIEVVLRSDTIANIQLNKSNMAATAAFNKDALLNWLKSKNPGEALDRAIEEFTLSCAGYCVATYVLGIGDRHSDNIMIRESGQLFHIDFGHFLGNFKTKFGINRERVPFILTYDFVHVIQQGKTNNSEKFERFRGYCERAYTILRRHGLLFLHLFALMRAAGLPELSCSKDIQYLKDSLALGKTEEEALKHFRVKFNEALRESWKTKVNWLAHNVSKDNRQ
T2 sequence (P27986 whole entry partner): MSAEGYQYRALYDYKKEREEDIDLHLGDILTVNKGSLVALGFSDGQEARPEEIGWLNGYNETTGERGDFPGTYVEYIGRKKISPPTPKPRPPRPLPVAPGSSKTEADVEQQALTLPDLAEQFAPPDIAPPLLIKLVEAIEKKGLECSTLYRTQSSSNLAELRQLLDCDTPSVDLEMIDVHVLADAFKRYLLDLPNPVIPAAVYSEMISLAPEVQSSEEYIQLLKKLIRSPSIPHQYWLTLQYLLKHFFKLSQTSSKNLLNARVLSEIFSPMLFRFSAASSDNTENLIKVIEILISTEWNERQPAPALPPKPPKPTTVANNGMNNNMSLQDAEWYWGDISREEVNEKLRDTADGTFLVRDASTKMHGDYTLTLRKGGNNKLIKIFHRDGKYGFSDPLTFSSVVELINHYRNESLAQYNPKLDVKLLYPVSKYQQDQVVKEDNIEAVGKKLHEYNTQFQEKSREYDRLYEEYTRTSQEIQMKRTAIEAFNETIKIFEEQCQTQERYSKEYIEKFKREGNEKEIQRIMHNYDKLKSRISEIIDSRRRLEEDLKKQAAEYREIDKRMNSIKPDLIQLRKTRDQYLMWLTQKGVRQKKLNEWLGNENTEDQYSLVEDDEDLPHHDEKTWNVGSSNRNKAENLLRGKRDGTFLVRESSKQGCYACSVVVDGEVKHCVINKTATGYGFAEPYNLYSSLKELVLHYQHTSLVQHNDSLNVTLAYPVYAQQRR
T1 sequence (P48736 whole entry): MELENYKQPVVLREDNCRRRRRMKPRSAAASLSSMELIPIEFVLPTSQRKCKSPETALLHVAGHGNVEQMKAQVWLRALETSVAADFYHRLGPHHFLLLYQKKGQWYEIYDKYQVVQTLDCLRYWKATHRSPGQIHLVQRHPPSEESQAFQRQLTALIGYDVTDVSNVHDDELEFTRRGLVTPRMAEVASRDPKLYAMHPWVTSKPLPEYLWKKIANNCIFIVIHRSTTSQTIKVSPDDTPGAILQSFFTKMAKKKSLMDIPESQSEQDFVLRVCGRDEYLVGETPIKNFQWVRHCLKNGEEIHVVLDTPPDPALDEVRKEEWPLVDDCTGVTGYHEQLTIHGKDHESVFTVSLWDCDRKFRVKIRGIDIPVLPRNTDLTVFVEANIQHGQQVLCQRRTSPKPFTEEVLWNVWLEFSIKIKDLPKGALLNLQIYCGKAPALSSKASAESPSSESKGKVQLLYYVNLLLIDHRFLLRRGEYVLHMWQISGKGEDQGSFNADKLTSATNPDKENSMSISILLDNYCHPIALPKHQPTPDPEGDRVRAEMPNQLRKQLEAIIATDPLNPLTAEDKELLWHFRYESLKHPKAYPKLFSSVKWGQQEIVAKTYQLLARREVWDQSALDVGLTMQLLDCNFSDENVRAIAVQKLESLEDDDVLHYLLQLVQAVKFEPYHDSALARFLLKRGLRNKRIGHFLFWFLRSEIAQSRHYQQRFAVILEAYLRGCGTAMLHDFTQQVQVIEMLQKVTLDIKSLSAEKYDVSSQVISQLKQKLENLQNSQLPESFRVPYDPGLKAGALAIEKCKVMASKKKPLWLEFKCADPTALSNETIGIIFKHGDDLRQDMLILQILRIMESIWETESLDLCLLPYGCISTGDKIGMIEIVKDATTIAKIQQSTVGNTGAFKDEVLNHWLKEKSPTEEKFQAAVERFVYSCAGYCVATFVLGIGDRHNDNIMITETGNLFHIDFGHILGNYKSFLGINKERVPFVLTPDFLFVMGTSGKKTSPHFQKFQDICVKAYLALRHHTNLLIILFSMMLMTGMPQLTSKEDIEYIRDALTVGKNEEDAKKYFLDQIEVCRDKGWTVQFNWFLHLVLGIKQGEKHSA

The term pIC50 denotes the IC50 on a negative log10 scale, so that one unit is a factor of ten. Read a high pIC50 as a low IC50. As to `C[C@H](Nc1nc(N)nc2c1C(=O)N(C)CN2)c1cc2cccc(Cl)c2c(=O)n1-c1ccccc1` [Example 52, (S)-7-amino-5-((1-(8-chloro-1-oxo-2-phenyl-1,2-dihydroisoquinoline-3-yl)ethyl)amino)-3-methyl-2,3-dihydropyrimido[4,5-d]pyrimidine-4(1H)-one], the pIC50 (against PI3 Kinase (p120γ) (h); in experiment [1]) was over 8.00 each time.

Regarding `C[C@H](Nc1nc(N)nc2c1C(=O)N(C)CN2)c1cc2ccccc2nc1-c1ccccc1` [Example 53, (S)-7-amino-3-methyl-5-((1-(2-phenylquinoline-3-yl)ethyl)amino)-2,3-dihydropyrimido[4,5-d]pyrimidine-4(1H)-one], the pIC50 (against PI3 Kinase (p120γ) (h); in experiment [1]) was 6.30 to 8.00 throughout.

For `CC[C@H](Nc1nc(N)nc2c1C(=O)N(C)CN2)c1nc2cccc(F)c2c(=O)n1-c1ccccc1` [Example 54, (S)-7-amino-5-((1-(5-fluoro-4-oxo-3-phenyl-3,4-dihydroquinazoline-2-yl)propyl)amino)-3-methyl-2,3-dihydropyrimido[4,5-d]pyrimidine-4(1H)-one], the pIC50 (on PI3 Kinase (p120γ) (h); in experiment [1]) was 6.30 to 8.00 each time.

Turning to `CN1CNc2nc(N)nc(N3CCC[C@H]3c3nc4cccc(Cl)c4c(=O)n3-c3ccccc3)c2C1=O` [Example 55, (S)-7-amino-5-(2-(5-chloro-4-oxo-3-phenyl-3,4-dihydroquinazoline-2-yl)pyrrolidine-1-yl)-3-methyl-2,3-dihydropyrimido[4,5-d]pyrimidine-4(1H)-one], the negative logarithm of the IC50 (pIC50) (against PI3 Kinase (p120γ) (h); in experiment [1]) was 6.30 to 8.00 throughout.

Take `CN1CNc2nc(N)nc(N3CCC[C@H]3c3nc4cccc(Cl)c4c(=O)n3-c3cccnc3)c2C1=O` [Example 56, (S)-7-amino-5-(2-(5-chloro-4-oxo-3-(pyridine-3-yl)-3,4-dihydroquinazoline-2-yl)pyrrolidine-1-yl)-3-methyl-2,3-dihydropyrimido[4,5-d]pyrimidine-4(1H)-one]: the negative logarithm of the IC50 (pIC50) (on PI3 Kinase (p120γ) (h); in experiment [1]) was under 6.30 in each case.

Turning to `CN1CNc2nc(N)nc(N3CCC[C@H]3c3nc4cccc(Cl)c4c(=O)n3-c3cccc(F)c3)c2C1=O` [Example 57, (S)-7-amino-5-(2-(5-chloro-3-(3-fluorophenyl)-4-oxo-3,4-dihydroquinazoline-2-yl)pyrrolidine-1-yl)-3-methyl-2,3-dihydropyrimido[4,5-d]pyrimidine-4(1H)-one], the pIC50 was 6.30 to 8.00 on PI3 Kinase (p120γ) (h) and under 6.30 in experiment [1].

With `Cc1cccc(-n2c([C@@H]3CCCN3c3nc(N)nc4c3C(=O)N(C)CN4)nc3cccc(Cl)c3c2=O)c1` [Example 58, (S)-7-amino-5-(2-(5-chloro-4-oxo-3-(m-tolyl)-3,4-dihydroquinazoline-2-yl)pyrrolidine-1-yl)-3-methyl-2,3-dihydropyrimido[4,5-d]pyrimidine-4(1H)-one], the negative logarithm of the IC50 (pIC50) (against PI3 Kinase (p120γ) (h); in experiment [1]) was under 6.30 throughout.

With `CN1CNc2nc(N)nc(N3CCC[C@H]3c3cc4cccc(Cl)c4c(=O)n3-c3ccccc3)c2C1=O` [Example 59, (S)-7-amino-5-(2-(8-chloro-1-oxo-2-phenyl-1,2-dihydroisoquinoline-3-yl)pyrrolidine-1-yl)-3-methyl-2,3-dihydropyrimido[4,5-d]pyrimidine-4(1H)-one], the pIC50 (against PI3 Kinase (p120γ) (h); in experiment [1]) was under 6.30 throughout.

As to `CC(C)N1CNc2ncnc(N[C@@H](C)c3cc4cccc(Cl)c4c(=O)n3-c3ccccc3)c2C1=O` [Example 64, (S)-5-(1-(8-chloro-1-oxo-2-phenyl-1,2-dihydroisoquinoline-3-yl)ethylamino)-3-isopropyl-2,3-dihydropyrimido[4,5-d]pyrimidine-4(1H)-one], the pIC50 (on PI3 Kinase (p120γ) (h); in experiment [1]) was under 6.30 throughout.

As for `CC[C@H](Nc1ncnc2c1C(=O)N(C(C)C)CN2)c1nc2cccc(F)c2c(=O)n1-c1ccccc1` [Example 65, (S)-5-(1-(5-fluoro-4-oxo-3-phenyl-3,4-dihydroquinazoline-2-yl)propylamino)-3-isopropyl-2,3-dihydropyrimido[4,5-d]pyrimidine-4(1H)-one], the pIC50 (at PI3 Kinase (p120γ) (h); in experiment [1]) was under 6.30 in each case.

Regarding `C[C@H](Nc1ncnc2[nH]cnc(=O)c12)c1nc2cccc(Cl)c2c(=O)n1-c1ccccc1` [Example 66, (S)-5-((1-(5-chloro-4-oxo-3-phenyl-3,4-dihydroquinazoline-2-yl)ethyl)amino)pyrimido[4,5-d]pyrimidine-4(1H)-one], the negative-log IC50 (pIC50) on PI3 Kinase (p120γ) (h) was under 6.30; in experiment [1], 6.30 to 8.00.

For `C[C@H](Nc1ncnc2[nH]cnc(=O)c12)c1nc2cccc(Cl)c2c(=O)n1-c1cccnc1` [Example 67, (S)-5-((1-(5-chloro-4-oxo-3-(pyridine-3-yl)-3,4-dihydroquinazoline-2-yl)ethyl)amino)pyrimido[4,5-d]pyrimidine-4(1H)-one], the negative logarithm of the IC50 (pIC50) (against PI3 Kinase (p120γ) (h); in experiment [1]) was under 6.30 each time.

`C[C@H](Nc1ncnc2[nH]cnc(=O)c12)c1nc2cccc(Cl)c2c(=O)n1-c1cccc(F)c1` [Example 68, (S)-5-((1-(5-chloro-3-(3-fluorophenyl)-4-oxo-3,4-dihydroquinazoline-2-yl)ethyl)amino)pyrimido[4,5-d]pyrimidine-4(1H)-one]: the negative-log IC50 (pIC50) (against PI3 Kinase (p120γ) (h); in experiment [1]) was under 6.30 throughout.

For the molecule `Cc1cccc(-n2c([C@H](C)Nc3ncnc4[nH]cnc(=O)c34)nc3cccc(Cl)c3c2=O)c1` [Example 69, (S)-5-((1-(5-chloro-4-oxo-3-(m-tolyl)-3,4-dihydroquinazoline-2-yl)ethyl)amino)pyrimido[4,5-d]pyrimidine-4(1H)-one], the negative logarithm of the IC50 (pIC50) at PI3 Kinase (p120γ) (h) was under 6.30; in experiment [1], 6.30 to 8.00.

For the molecule `C[C@H](Nc1ncnc2[nH]cnc(=O)c12)c1cc2cccc(Cl)c2c(=O)n1-c1ccccc1` [Example 70, (S)-5-((1-(8-chloro-1-oxo-2-phenyl-1,2-dihydroisoquinoline-3-yl)ethyl)amino)pyrimido[4,5-d]pyrimidine-4(1H)-one], the pIC50 (against PI3 Kinase (p120γ) (h); in experiment [1]) was 6.30 to 8.00 in each case.

For `C[C@H](Nc1ncnc2[nH]cnc(=O)c12)c1nn2ccc(Cl)c2c(=O)n1-c1ccccc1` [Example 71, (S)-5-((1-(5-chloro-4-oxo-3-phenyl-3,4-dihydropyrrolo[2,1-f][1,2,4]triazine-2-yl)ethyl)amino)pyrimido[4,5-d]pyrimidine-4(1H)-one], the negative-log IC50 (pIC50) is under 6.30 against PI3 Kinase (p120γ) (h) and 6.30 to 8.00 in experiment [1].

Take `C[C@H](Nc1ncnc2[nH]cnc(=O)c12)c1cc2ccccc2nc1-c1ccccc1` [Example 72, (S)-5-((1-(2-phenylquinoline-3-yl)ethyl)amino)pyrimido[4,5-d]pyrimidine-4(1H)-one]: the negative-log IC50 (pIC50) (against PI3 Kinase (p120γ) (h); in experiment [1]) was under 6.30 in each case.

For `CC[C@H](Nc1ncnc2[nH]cnc(=O)c12)c1nc2cccc(F)c2c(=O)n1-c1ccccc1` [Example 73, (S)-5-((1-(5-fluoro-4-oxo-3-phenyl-3,4-dihydroquinazoline-2-yl)propyl)amino)pyrimido[4,5-d]pyrimidine-4(1H)-one], the negative-log IC50 (pIC50) (against PI3 Kinase (p120γ) (h); in experiment [1]) was under 6.30 throughout.

As to `O=c1nc[nH]c2ncnc(N3CCC[C@H]3c3nc4cccc(Cl)c4c(=O)n3-c3ccccc3)c12` [Example 74, (S)-5-(2-(5-chloro-4-oxo-3-phenyl-3,4-dihydroquinazoline-2-yl)pyrrolidine-1-yl)pyrimido[4,5-d]pyrimidine-4(1H)-one], the pIC50 (on PI3 Kinase (p120γ) (h); in experiment [1]) was under 6.30 in each case.
